{"source": "patent US5491135A", "about": "(priority 1993, dated 1996)", "tested_on": "HCMV strain AD 169", "assay": "Rabbit HCMV ascending dose efficacy and time course recovery (Example 7)", "conditions": "for Vitreo-retinal score: sum of both eyes", "key": {"[1]": {"conditions": "day 3, PALA 75 mg/kg/d, with or without steroid"}, "[2]": {"conditions": "day 3, PALA 50 or DHPG 10 mg/kg/d"}, "[3]": {"conditions": "day 4, PALA 75 mg/kg/d, with or without steroid"}, "[4]": {"conditions": "day 4, PALA 50 or DHPG 10 mg/kg/d"}, "[5]": {"conditions": "day 5, PALA 75 mg/kg/d, with or without steroid"}, "[6]": {"conditions": "day 5, PALA 50 or DHPG 10 mg/kg/d"}, "[7]": {"conditions": "day 6, PALA 75 mg/kg/d, with or without steroid"}}, "note": "Values joined by “and” are separate entries in the source; they are usually repeats but may differ in a detail not shown here. Identical values can stand only once. “Also recorded” adds a separate entry of the source."}
{"smiles": "O=C(O)C[C@H](NC(=O)CP(=O)(O)O)C(=O)O", "note": "[PALA]", "values": [{"measurement": "HCMV recovery vs placebo", "setting": "PALA 75 mg/kg/day", "result": "comparable to placebo therapy"}, {"measurement": "clinical disease / efficacy", "setting": "PALA 75 mg/kg/day i.v., with or without steroid", "result": "vitreitis increased through day 6 post inoculation; also recorded: not improved when compared to the 50 mg/kg/day PALA dose or to the 10 mg/kg/day DHPG dose"}, {"measurement": "HCMV recovery vs placebo", "setting": "PALA 100 mg/kg/day", "result": "significantly higher than HCMV recovery in placebo treated animals"}, {"measurement": "clinical disease / efficacy", "setting": "PALA 100 mg/kg/day i.v.", "result": "Both the vitreitis and optic nerve head disease severity were increased compared to other single-agent PALA, DHPG and placebo therapies; also recorded: not effective in reducing the clinical disease progression or HCMV recovery"}, {"measurement": "toxicity", "setting": "PALA 100 mg/kg/day i.v.", "result": "toxic to the animals; also recorded: animal died prior"}, {"measurement": "clinical disease / efficacy", "setting": "PALA 50 or DHPG 10 mg/kg/day i.v.", "result": "vitreitis increased through day 6 post inoculation; also recorded: optic nerve head pathology peaked on day 4 after inoculation and decreased to low levels"}, {"measurement": "HCMV Recovered, OD", "setting": "[1]", "result": "+"}, {"measurement": "HCMV Recovered, OS", "setting": "[1]", "result": "+"}, {"measurement": "HCMV Titer, OD", "setting": "[1]", "result": "10^5 pfu and 10^4 pfu"}, {"measurement": "HCMV Titer, OS", "setting": "[1]", "result": "10^4 pfu"}, {"measurement": "HCMV recovery frequency", "setting": "[1]", "result": "4/4"}, {"measurement": "Optic neuritis score (ONH)", "setting": "[1]", "result": 2.0}, {"measurement": "Vitreo-retinal score", "setting": "[1]", "result": "2.25 and 1.5"}, {"measurement": "Average HCMV titer", "setting": "day 3, PALA 100 mg/kg/d", "result": "10^4 pfu"}, {"measurement": "HCMV Recovered, OD", "setting": "day 3, PALA 100 mg/kg/d", "result": "+"}, {"measurement": "HCMV Recovered, OS", "setting": "day 3, PALA 100 mg/kg/d", "result": "+"}, {"measurement": "HCMV Titer, OD", "setting": "day 3, PALA 100 mg/kg/d", "result": "10^4 pfu"}, {"measurement": "HCMV Titer, OS", "setting": "day 3, PALA 100 mg/kg/d", "result": "10^3 pfu"}, {"measurement": "HCMV recovery frequency", "setting": "day 3, PALA 100 mg/kg/d", "result": "4/4"}, {"measurement": "Optic neuritis score (ONH)", "setting": "day 3, PALA 100 mg/kg/d", "result": "2.0 and 3.0"}, {"measurement": "Vitreo-retinal score", "setting": "day 3, PALA 100 mg/kg/d", "result": "1.0 and 0.75"}, {"measurement": "HCMV Recovered, OD", "setting": "[2]", "result": "+"}, {"measurement": "HCMV Recovered, OS", "setting": "[2]", "result": "+"}, {"measurement": "HCMV Titer, OD", "setting": "[2]", "result": "10^3 pfu and 10^4 pfu"}, {"measurement": "HCMV Titer, OS", "setting": "[2]", "result": "10^4 pfu and 10^3 pfu"}, {"measurement": "HCMV recovery frequency", "setting": "[2]", "result": "4/4"}, {"measurement": "Optic neuritis score (ONH)", "setting": "[2]", "result": 2.0}, {"measurement": "Vitreo-retinal score", "setting": "[2]", "result": "1.0 and 1.5"}, {"measurement": "HCMV Recovered, OD", "setting": "[3]", "result": "+"}, {"measurement": "HCMV Recovered, OS", "setting": "[3]", "result": "+ and -"}, {"measurement": "HCMV Titer, OD", "setting": "[3]", "result": "10^4 pfu"}, {"measurement": "HCMV Titer, OS", "setting": "[3]", "result": "10^3 pfu"}, {"measurement": "HCMV recovery frequency", "setting": "[3]", "result": "3/4"}, {"measurement": "Optic neuritis score (ONH)", "setting": "[3]", "result": "4.0 and 5.0"}, {"measurement": "Vitreo-retinal score", "setting": "[3]", "result": "2.75 and 3.5"}, {"measurement": "Average HCMV titer", "setting": "day 4, PALA 100 mg/kg/d", "result": "10^3 pfu"}, {"measurement": "HCMV Recovered, OD", "setting": "day 4, PALA 100 mg/kg/d", "result": "+"}, {"measurement": "HCMV Recovered, OS", "setting": "day 4, PALA 100 mg/kg/d", "result": "+"}, {"measurement": "HCMV Titer, OD", "setting": "day 4, PALA 100 mg/kg/d", "result": "10^5 pfu and 10^3 pfu"}, {"measurement": "HCMV Titer, OS", "setting": "day 4, PALA 100 mg/kg/d", "result": "10^3 pfu and 10^4 pfu"}, {"measurement": "HCMV recovery frequency", "setting": "day 4, PALA 100 mg/kg/d", "result": "3/4"}, {"measurement": "Optic neuritis score (ONH)", "setting": "day 4, PALA 100 mg/kg/d", "result": "6.0 and 5.0"}, {"measurement": "Vitreo-retinal score", "setting": "day 4, PALA 100 mg/kg/d", "result": "4.5 and 3.75"}, {"measurement": "HCMV Recovered, OD", "setting": "[4]", "result": "- and +"}, {"measurement": "HCMV Recovered, OS", "setting": "[4]", "result": "-"}, {"measurement": "HCMV Titer, OD", "setting": "[4]", "result": "10^4 pfu"}, {"measurement": "HCMV recovery frequency", "setting": "[4]", "result": "1/4"}, {"measurement": "Optic neuritis score (ONH)", "setting": "[4]", "result": "2.0 and 3.0"}, {"measurement": "Average HCMV titer", "setting": "[5]", "result": "10^2 pfu"}, {"measurement": "HCMV Recovered, OD", "setting": "[5]", "result": "-"}, {"measurement": "HCMV Recovered, OS", "setting": "[5]", "result": "- and +"}, {"measurement": "HCMV Titer, OS", "setting": "[5]", "result": "10^2 pfu"}, {"measurement": "HCMV recovery frequency", "setting": "[5]", "result": "1/4"}, {"measurement": "Optic neuritis score (ONH)", "setting": "[5]", "result": "3.0 and 5.0"}, {"measurement": "Vitreo-retinal score", "setting": "[5]", "result": "1.75 and 3.5"}, {"measurement": "Average HCMV titer", "setting": "day 5, PALA 100 mg/kg/d", "result": "10^2 pfu"}, {"measurement": "HCMV Recovered, OD", "setting": "day 5, PALA 100 mg/kg/d", "result": "-"}, {"measurement": "HCMV Recovered, OS", "setting": "day 5, PALA 100 mg/kg/d", "result": "+ and -"}, {"measurement": "HCMV Titer, OS", "setting": "day 5, PALA 100 mg/kg/d", "result": "10^2 pfu"}, {"measurement": "HCMV recovery frequency", "setting": "day 5, PALA 100 mg/kg/d", "result": "1/4"}, {"measurement": "HCMV titer", "setting": "day 5, PALA 100 mg/kg/d", "result": "10^2 pfu/ml"}, {"measurement": "Optic neuritis score (ONH)", "setting": "day 5, PALA 100 mg/kg/d", "result": "5.0 and 4.0"}, {"measurement": "Vitreo-retinal score", "setting": "day 5, PALA 100 mg/kg/d", "result": "3.5 and 3.0"}, {"measurement": "Average HCMV titer", "setting": "[6]", "result": "10^1 pfu"}, {"measurement": "HCMV Recovered, OD", "setting": "[6]", "result": "- and +"}, {"measurement": "HCMV Recovered, OS", "setting": "[6]", "result": "+ and -"}, {"measurement": "HCMV Titer, OD", "setting": "[6]", "result": "10^2 pfu"}, {"measurement": "HCMV Titer, OS", "setting": "[6]", "result": "10^2 pfu"}, {"measurement": "HCMV recovery frequency", "setting": "[6]", "result": "2/4"}, {"measurement": "Optic neuritis score (ONH)", "setting": "[6]", "result": 1.0}, {"measurement": "Vitreo-retinal score", "setting": "[6]", "result": "0.65 and 1.25"}, {"measurement": "HCMV Titer, OS", "setting": "day 6, PALA 50 mg/kg/d", "result": "10^3 pfu and 10^2 pfu"}, {"measurement": "HCMV titer", "setting": "day 6, PALA 50 mg/kg/d", "result": "10^2 pfu/ml"}, {"measurement": "HCMV Recovered, OD", "setting": "[7]", "result": "+ and -"}, {"measurement": "HCMV Recovered, OS", "setting": "[7]", "result": "+ and -"}]}
